Results taken from patent publication US8697629B2, “Modulation of intracellular signaling” (Angstrom Pharmaceuticals, Inc., priority 2010, dated 2014).

Assays:
Type in all cases: cell-based
[1] = system: PKCalpha; assay: PKCalpha phosphorylation in SKOV3 cells, immunoblot
Procedure: Cells were detached from their culture vessels by brief trypsinization, suspended in complete media and centrifuged at 250×g for 10 min at room temperature. The cell pellets were suspended in Dulbeco's phosphate buffered saline (DPBS) and re-centrifuged for a total of three washes. The cells were then re-suspended at 3.33E5/ml in 24 ml of either RPMI containing 0.5% BSA (Sigma Chem. Co. #A0336) (RPMI/BSA) or the conditioned media of growing NIH3T3 fibroblasts (10% FBS in DMEM) supplemented with 10 ng/ml vascular endothelial growth factor (VEGF) (CMN). The cells were then treated with or without 100 ug/ml soluble hyaluronic acid (HA; human umbilical, Calbiochem #385902) for 30 min at 37° C. under 5% CO2. Aliquots representing 2E6 cells were then plated into 10 cm culture dishes and A6 added to yield final concentrations of 0, 10, 100 and 1000 nM. The cells were cultured overnight (18 hr) at 37° C. under 5% CO2.
After 18 hr of treatment, the media were aspirated from the 10 cm dishes and saved. The plates were washed 3 times with 4 ml of ice-cold DPBS which were pooled with the reserved non-adherent cells. The non-adherent cells were centrifuged at 250×g for 10 min at 4° C., washed twice with cold DPBS, drained and lysed in 50 ul of cold RIPA buffer (ThermoScientific #89901) containing cocktails of broad spectrum phosphatase inhibitors (Calbiochem #524625; used at 2× final concentration) and protease inhibitors (Sigma #P8340) (RIPA/inh.). The 10 cm dishes were drained of remaining wash and the adherent cells lysed by scraping in 200 μL of cold RIPA/inh. For each test condition, the lysates of the non-adherent and adherent populations were combined, vortexed and then centrifuged at 14,000 rpm at 4° C. for 20 min. Aliquots of the cleared lysates were frozen at −80° C. immediately. A small aliquot was reserved for total protein analysis using a BCA Protein Assay Kit (Calbiochem #71285-3).
Samples representing 20 μg of total protein of each lysate were solubilized in the presence of 50 mM Tris pH 6.8, 10% glycerol, 2% SDS and 100 mM DTT for 5 min at 95° C. and then loaded onto 10-20% acrylamide gels (BioRad #345-0044, Tris-HCl, 1 mm, 26 well, 15 μL/well). Electrophoresis was performed using Laemli electrophoresis buffer (0.1% SDS, 25 mM Tris, 192 mM glycine) at 200 V, constant voltage, for one hour. Upon completion of electrophoresis, the proteins were transferred to Immun-Blot PVDF membranes (BioRad #162-0238) in ice-cold 20% methanol in 25 mM Tris, 192 mM glycine for 2 hr at 0.5 Amps, constant current/blotting apparatus. The membranes were then cut vertically between molecular weight markers and in half at the 64 kDa marker to generate pieces for screening of higher molecular weight proteins (e.g., FAK) and lower molecular weight proteins (e.g., MEK and GAPDH). […]

[2] = system: SKOV3 cells; assay: Adhesion of SKOV3 cells to hyaluronic acid; conditions: immobilized HA; 1 or 10 uM Å6; 20 ng/ml IM7
Procedure: (§1) In FIG. 11 SKOV3 cells were cultured overnight with or without 10 μM Å6 or 100 ng/ml PMA. The cells were then detached, washed and loaded with 20 μg/ml CFDA-SE for 30 min at 37° C. After washing, the cells were resuspended in PBS containing 10% FCS and triplicate aliquots representing 100,000 cells incubated for 30 min at room temperature with no additions, 1 or 10 uM Å6 or with 20 ng/ml IM7, a blocking anti-CD44 rat monoclonal antibody. The cells were then placed into microtiter wells that had been coated with 50 μL of 1 mg/mL HA overnight and blocked for 30 min with 10% FCS. The cells were allowed to adhere at room temperature for 30 minutes after which, the wells were decanted and washed 3 times. The fluorescence in each well was assessed (excit./emiss.: 460/536 nm) and the mean fluorescence values (+/standard deviation) of the triplicate determinations calculated.

[3] = system: A2780 cells; assay: Adhesion of A2780 cells to hyaluronic acid; conditions: immobilized HA; 1 or 10 μM Å6
Procedure: as §1, with “12 A2780” for “11 SKOV3”, “μM” for “uM”, “ul” for “μL”, “mg/ml” for “mg/mL”, “min” for “minutes”

[4] = system: A2780 cells; assay: Boyden chamber chemotaxis of A2780 cells; conditions: 10 ng/ml VEGF in NIH3T3-conditioned media, overnight
Procedure: A2780 (FIG. 10a) and SKOV3 (FIG. 10b) cells were incubated with the indicated concentrations of Å6 peptide for 30 min at 37° C. Aliquots representing 6,000 cells were placed on quadruplicate, CnI-coated filters (8 μm pores) in Boyden chambers and the cells allowed to migrate overnight in response to 10 ng/ml VEGF in NIH3T3-conditioned media containing the indicated concentrations of Å6. Upon completion of migration, the apical surfaces of the membranes were wiped clean and the migrating cells on the basal surface were stained with Geimsa stain and the cells present in representative fields of the membranes counted. Data represent the averages+/−standard deviations obtained from the replicate filters. […] This provides further confirmation that CD44 is the target for the Å6 peptide.

## acetyl-Lys-Pro-Ser-Ser-Pro-Pro-Glu-Glu-NH2 (Ac-KPSSPPEE-NH2) [Å6]
[1]; CM/V cultured samples
  total PKCalpha: decreased
[1]; CM/V in the absence of HA
  pPKCa/PKCa: decreased
[1]; in the presence of HA
  pPKCa/PKCa: appears to have further enhanced
[2]
  SKOV3 binding to HA: enhanced
[3]
  binding of A2780 cells to HA: does not substantially modulate
[4]
  migration of A2780: essentially unaffected
